From patent US20240092761A1, “QUINAZOLINE COMPOUNDS AND METHODS OF USE” (IAMBIC THERAPEUTICS, INC., priority 2022, published 2024)

Key:
[1] = test system: OVCAR-3 cells; assay: Cell Growth Inhibition, OVCAR-3 (CellTiterGlo, 6 days); assay type: cell-based; settings: Homo sapiens, 144 h; OVCAR-3, 6-day treatment, CellTiterGlo 2.0
Procedure, shortened: (§1)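 MCF-7 and OVCAR-3 cells (RPMI, 10% FBS) were seeded at 500 cells/well onto compound, typically 10–10,000 nM in half-log dilutions. Growth proceeded 6 days at 37 °C, then CellTiterGlo luminescence was read. % inhibition was taken versus control, and IC50 came from a four-parameter variable-slope fit.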

[2] = target: CDK2/Cyclin E1 full length (Homo sapiens (Human), UniProt P24941); assay: CDK2/Cyclin E1 Full Length ADP-Glo Kinase Assay; assay type: biochemical; settings: 20 uM ATP, read-out: CDK2/ CyclinE1 IC50
Procedure, shortened: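 Full-length human CDK2/Cyclin E1 (0.328 nM) pre-incubated 30 min with inhibitor at RT, then reacted 90 min at RT with 20 uM ATP (Km 64.78 uM) and 0.75 uM substrate in pH 7.5 HEPES, 2% DMSO. ADP measured by ADP-Glo luminescence; IC50 from 4-parameter fit of fractional velocity.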

[3] = target: CDK4/Cyclin D1 (Homo sapiens (Human), UniProt P11802); assay: CDK4/Cyclin D1 CHEF Assay (AQT0258 peptide); assay type: biochemical; settings: 200 uM ATP, read-out: CDK4/ CyclinD1 AQT IC50
Sequence of CDK4/Cyclin D1 (P11802 whole entry): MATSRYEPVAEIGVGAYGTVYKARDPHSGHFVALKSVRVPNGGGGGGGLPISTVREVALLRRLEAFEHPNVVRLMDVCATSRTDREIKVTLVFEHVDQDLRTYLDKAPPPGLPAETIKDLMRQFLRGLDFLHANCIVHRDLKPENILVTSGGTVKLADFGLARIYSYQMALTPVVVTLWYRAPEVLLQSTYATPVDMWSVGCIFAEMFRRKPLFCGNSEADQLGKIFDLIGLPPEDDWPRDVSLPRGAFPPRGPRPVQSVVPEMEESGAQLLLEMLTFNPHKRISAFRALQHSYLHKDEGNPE
Sequence of CDK4/Cyclin D1 (P24385 whole entry partner): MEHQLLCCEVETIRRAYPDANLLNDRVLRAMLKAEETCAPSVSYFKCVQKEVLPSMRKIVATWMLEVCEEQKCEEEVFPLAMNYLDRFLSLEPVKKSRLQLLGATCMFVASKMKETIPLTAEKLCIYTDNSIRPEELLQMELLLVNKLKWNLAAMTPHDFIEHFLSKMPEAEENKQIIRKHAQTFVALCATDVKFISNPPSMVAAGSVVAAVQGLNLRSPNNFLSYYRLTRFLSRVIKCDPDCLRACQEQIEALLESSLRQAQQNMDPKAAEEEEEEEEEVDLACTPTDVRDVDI
Procedure, shortened: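 CDK4/Cyclin D1 (2.5 nM) phosphorylating 10 uM Sox-labelled peptide AQT0258 with 200 uM ATP (Km 195.2 uM), 10 mM MgCl2, 2% DMSO, 54 mM HEPES pH 7.5. Enzyme and inhibitor pre-incubated 30 min, reaction 3 hrs at 22° C.; CHEF fluorescence (ex 360/em 485 nm), IC50 from fractional velocity, 4-parameter fit.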

[4] = target: CDK6/Cyclin D3 (Homo sapiens (Human), UniProt Q00534); assay: CDK6/Cyclin D3 ADP-Glo Kinase Assay; assay type: biochemical; settings: 100 uM ATP, read-out: CDK6/ CyclinD3 IC50
Sequence of CDK6/Cyclin D3 (Q00534 whole entry): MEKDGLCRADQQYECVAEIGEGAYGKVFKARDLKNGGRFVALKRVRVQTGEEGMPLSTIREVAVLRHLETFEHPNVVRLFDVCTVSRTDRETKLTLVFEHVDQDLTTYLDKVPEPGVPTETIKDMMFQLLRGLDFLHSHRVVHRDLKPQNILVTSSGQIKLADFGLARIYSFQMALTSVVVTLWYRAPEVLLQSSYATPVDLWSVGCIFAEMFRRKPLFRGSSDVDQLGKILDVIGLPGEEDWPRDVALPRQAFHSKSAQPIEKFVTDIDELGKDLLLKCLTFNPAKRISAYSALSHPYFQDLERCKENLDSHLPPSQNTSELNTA
Sequence of CDK6/Cyclin D3 (P30281 whole entry partner): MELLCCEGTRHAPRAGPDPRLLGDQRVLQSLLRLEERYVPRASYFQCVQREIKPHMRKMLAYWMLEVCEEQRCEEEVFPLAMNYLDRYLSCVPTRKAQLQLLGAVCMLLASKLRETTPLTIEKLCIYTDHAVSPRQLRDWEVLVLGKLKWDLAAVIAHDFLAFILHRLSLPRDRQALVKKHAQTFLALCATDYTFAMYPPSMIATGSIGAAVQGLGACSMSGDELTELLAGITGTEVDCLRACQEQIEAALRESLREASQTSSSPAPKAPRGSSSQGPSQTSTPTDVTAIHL
Procedure, shortened: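 Recombinant human CDK6/Cyclin D3 pre-incubated 30 min with inhibitor at room temperature, then reaction started with ATP/substrate and run 90 min at room temperature. ADP formed detected by ADP-Glo luminescence; IC50 from a 4-parameter fit of fractional velocity versus inhibitor concentration.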

[5] = target: CDK1/Cyclin B1 (Homo sapiens (Human), UniProt P06493); assay: CDK1/Cyclin B1 ADP-Glo Kinase Assay; assay type: biochemical; settings: 80 uM ATP
Sequence of CDK1/Cyclin B1 (P06493 whole entry): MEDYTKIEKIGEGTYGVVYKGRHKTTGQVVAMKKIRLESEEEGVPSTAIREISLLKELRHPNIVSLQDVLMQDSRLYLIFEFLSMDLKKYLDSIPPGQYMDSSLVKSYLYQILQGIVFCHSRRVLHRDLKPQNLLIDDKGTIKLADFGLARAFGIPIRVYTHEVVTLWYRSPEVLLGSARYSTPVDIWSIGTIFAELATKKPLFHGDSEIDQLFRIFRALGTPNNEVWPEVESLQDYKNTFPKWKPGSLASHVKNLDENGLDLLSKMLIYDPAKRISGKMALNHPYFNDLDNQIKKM
Sequence of CDK1/Cyclin B1 (P14635 whole entry partner): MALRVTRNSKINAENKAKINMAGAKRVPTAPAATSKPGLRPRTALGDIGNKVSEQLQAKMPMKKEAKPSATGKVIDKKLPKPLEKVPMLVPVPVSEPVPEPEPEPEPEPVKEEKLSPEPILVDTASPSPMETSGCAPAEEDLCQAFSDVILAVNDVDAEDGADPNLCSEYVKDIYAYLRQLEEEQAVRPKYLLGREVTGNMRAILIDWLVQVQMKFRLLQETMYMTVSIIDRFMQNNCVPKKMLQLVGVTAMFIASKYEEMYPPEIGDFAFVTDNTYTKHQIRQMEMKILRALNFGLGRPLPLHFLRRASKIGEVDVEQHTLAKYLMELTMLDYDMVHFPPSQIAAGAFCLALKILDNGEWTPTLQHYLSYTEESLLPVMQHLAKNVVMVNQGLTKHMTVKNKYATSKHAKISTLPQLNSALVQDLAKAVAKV
Procedure, shortened: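 CDK1/cyclin B1 (4.917 nM) preincubated 30 min with inhibitor (2% DMSO), then 80 µM ATP (Km 78.6 µM) and 0.75 µM substrate added; 90 min, room temperature, pH 7.5. ADP measured by ADP-Glo luminescence; IC50 from 4-parameter fit.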

[6] = test system: MCF-7 cells; assay: Cell Growth Inhibition, MCF-7 (CellTiterGlo, 6 days); assay type: cell-based; settings: Homo sapiens, MCF7, 144 h; MCF-7, 6-day treatment, CellTiterGlo 2.0
Procedure, shortened: as §1

Row | SMILES | IC50 [1] [nM] | IC50 [2] [nM] | IC50 [3] [nM] | IC50 [4] [nM] | IC50 [5] [nM] | IC50 [6] [nM]
1 | CS(=O)(=O)N1CCC(Nc2ncc3cccc(C4CC(CO)(C(F)F)C4)c3n2)CC1 (stereo not drawn) [Example 121, (1-(difluoromethyl)-3-(2-((1-methanesulfonylpiperidin-4-yl)amino)quinazolin-8-yl)cyclobutyl]methanol] | 500 to 2000 | < 200 | < 200 | < 200 | 200 to 500 | > 2000
2 | CS(=O)(=O)N1CCC(Nc2ncc3cc(C(F)(F)F)cc(C4CC(O)(C5CC5)C4)c3n2)CC1 (stereo not drawn) [Example 114, 1-cyclopropyl-3-(2-((1-(methylsulfonyl)piperidin-4-yl)amino)-6-(trifluoromethyl)quinazolin-8-yl)cyclobutan-1-ol] | > 2000 | < 200 | < 200 | < 200 | < 200 | > 2000
3 | CN1Cc2ccc(Nc3ncc4cc(C(F)F)cc(N5CC6(C5)CN(C5CC5)C6)c4n3)cc2C1 [Example 65, 8-(6-cyclopropyl-2,6-diazaspiro[3.3]heptan-2-yl)-6-(difluoromethyl)-N-(2-methylisoindolin-5-yl)quinazolin-2-amine] | 500 to 2000 | < 200 | < 200 | < 200 | > 2000 | 500 to 2000
4 | CS(=O)(=O)N1CCC(Nc2ncc3cc(C(F)F)cc(C4CC(O)(C(F)F)C4)c3n2)CC1 (stereo not drawn) [Example 113, 1-(difluoromethyl)-3-(6-(difluoromethyl)-2-((1-(methylsulfonyl)piperidin-4-yl)amino)quinazolin-8-yl)cyclobutan-1-ol] | 200 to 500 | < 200 | < 200 | < 200 | < 200 | 200 to 500
5 | CS(=O)(=O)N1CCC(Nc2ncc3cccc(N4CC(F)(F)C5(CNC5)C4)c3n2)CC1 [Example 109, 8-(8,8-difluoro-2,6-diazaspiro[3.4]octan-6-yl)-N-(1-(methylsulfonyl)piperidin-4-yl)quinazolin-2-amine] | 500 to 2000 | < 200 | < 200 | < 200 | < 200 | 500 to 2000
6 | O=S(=O)(C1CC1)N1CCC(Nc2ncc3cc(C(F)F)cc(C4CC5(C4)CN(CC(F)F)C5)c3n2)CC1 [Example 90, N-(1-(cyclopropylsulfonyl)piperidin-4-yl)-8-(2-(2,2-difluoroethyl)-2-azaspiro[3.3]heptan-6-yl)-6-(difluoromethyl)quinazolin-2-amine] | 200 to 500 | < 200 | < 200 | < 200 | < 200 | 500 to 2000
7 | O[C@@H]1COCC[C@H]1Nc1ncc2cc(C(F)F)cc(N3CC(F)(F)C4(CNC4)C3)c2n1 (racemic) [Example 117, (3S,4R)-4-((8-(8,8-difluoro-2,6-diazaspiro[3.4]octan-6-yl)-6-(difluoromethyl)quinazolin-2-yl)amino)tetrahydro-2H-pyran-3-ol] | > 2000 | < 200 | < 200 | < 200 | > 2000 | 500 to 2000
8 | CN1Cc2ccc(Nc3ncc4cc(C(F)F)cc(N5CC6(C5)CN(S(C)(=O)=O)C6)c4n3)cc2C1 [Example 58, 6-(difluoromethyl)-N-(2-methylisoindolin-5-yl)-8-(6-(methylsulfonyl)-2,6-diazaspiro[3.3]heptan-2-yl)quinazolin-2-amine] | 500 to 2000 | < 200 | < 200 | < 200 | 500 to 2000 | 500 to 2000
9 | CN1CC2(CC(n3cc(Nc4ncc5cc(C(F)F)cc(N6CCC(C#N)(C7CC7)C6)c5n4)cn3)C2)C1 (stereo not drawn) [Example 60, 3-cyclopropyl-1-(6-(difluoromethyl)-2-((1-(2-methyl-2-azaspiro[3.3]heptan-6-yl)-1H-pyrazol-4-yl)amino)quinazolin-8-yl)pyrrolidine-3-carbonitrile] | 500 to 2000 | 200 to 500 | < 200 | < 200 | 500 to 2000 | 500 to 2000

Results, then the compound that gave them:

Row | IC50 [1] [nM] | IC50 [2] [nM] | IC50 [3] [nM] | IC50 [4] [nM] | IC50 [5] [nM] | IC50 [6] [nM] | SMILES
10 | 500 to 2000 | < 200 | < 200 | < 200 | < 200 | 200 to 500 | CN1CC2(CCN(c3cc(C(F)F)cc4cnc(NC5CCN(S(=O)(=O)C6CC6)CC5)nc34)C2)C1 [Example 77, N-(1-(cyclopropylsulfonyl)piperidin-4-yl)-6-(difluoromethyl)-8-(2-methyl-2,6-diazaspiro[3.4]octan-6-yl)quinazolin-2-amine]
11 | 200 to 500 | < 200 | < 200 | < 200 | < 200 | 200 to 500 | O=S(=O)(C1CC1)N1CCC(Nc2ncc3cc(C(F)F)cc(N4CC5(CCCNC5)C4)c3n2)CC1 [Example 80, N-(1-(cyclopropylsulfonyl)piperidin-4-yl)-6-(difluoromethyl)-8-(2,6-diazaspiro[3.5]nonan-2-yl)quinazolin-2-amine]
12 | 500 to 2000 | < 200 | < 200 | < 200 | < 200 | 500 to 2000 | O=S(=O)(CC1CCC1)N1CCC(Nc2ncc3cc(C(F)F)cc(N4CC5(CCNC5)C4)c3n2)CC1 [Example 86, N-(1-((cyclobutylmethyl)sulfonyl)piperidin-4-yl)-6-(difluoromethyl)-8-(2,6-diazaspiro[3.4]octan-2-yl)quinazolin-2-amine]
13 | 200 to 500 | < 200 | < 200 | < 200 | < 200 | 200 to 500 | O=S(=O)(CC1CC1)N1CCC(Nc2ncc3cc(C(F)F)cc(N4CC5(CCNC5)C4)c3n2)CC1 [Example 85, N-(1-((cyclopropylmethyl)sulfonyl)piperidin-4-yl)-6-(difluoromethyl)-8-(2,6-diazaspiro[3.4]octan-2-yl)quinazolin-2-amine]
14 | < 200 | < 200 | < 200 | < 200 | < 200 | 200 to 500 | O=S(=O)(N1CCC(Nc2ncc3cc(C(F)F)cc(N4CC5(CCNC5)C4)c3n2)CC1)C1(C(F)F)CC1 [Example 93, 6-(difluoromethyl)-N-(1-((1-(difluoromethyl)cyclopropyl)sulfonyl)piperidin-4-yl)-8-(2,6-diazaspiro[3.4]octan-2-yl)quinazolin-2-amine]
15 | > 2000 | < 200 | < 200 | < 200 | 200 to 500 | 500 to 2000 | O=S(=O)(C1CC1)N1CCC(Nc2ncc3cc(C(F)F)cc(N4CC5(C4)CN(C4CC4)C5)c3n2)CC1 [Example 78, 8-(6-cyclopropyl-2,6-diazaspiro[3.3]heptan-2-yl)-N-(1-(cyclopropylsulfonyl)piperidin-4-yl)-6-(difluoromethyl)quinazolin-2-amine]
16 | 500 to 2000 | < 200 | < 200 | < 200 | < 200 | 500 to 2000 | CS(=O)(=O)N1CCC(Nc2ncc3cc(C(F)F)cc(N4CC(F)(F)C5(CNC5)C4)c3n2)CC1 [Example 92, 8-(8,8-difluoro-2,6-diazaspiro[3.4]octan-6-yl)-6-(difluoromethyl)-N-(1-(methylsulfonyl)piperidin-4-yl)quinazolin-2-amine]
17 | 500 to 2000 | < 200 | < 200 | < 200 | 200 to 500 | 500 to 2000 | O=S(=O)(CC1CCC1)N1CCC(Nc2ncc3cc(C(F)F)cc(N4CCC5(CNC5)C4)c3n2)CC1 [Example 84, N-(1-((cyclobutylmethyl)sulfonyl)piperidin-4-yl)-6-(difluoromethyl)-8-(2,6-diazaspiro[3.4]octan-6-yl)quinazolin-2-amine]
18 | 500 to 2000 | < 200 | < 200 | < 200 | < 200 | 500 to 2000 | CS(=O)(=O)N1CCC(Nc2ncc3cc(C(F)F)cc(C4CC5(CCN(CC(F)(F)CO)C5)C4)c3n2)CC1 (stereo not drawn) [Example 106, 3-(2-(6-(difluoromethyl)-2-((1-(methylsulfonyl)piperidin-4-yl)amino)quinazolin-8-yl)-6-azaspiro[3.4]octan-6-yl)-2,2-difluoropropan-1-ol]
